Measured values taken from ChEMBL document CHEMBL5030517, “6-Halopyridylmethylidene Penicillin-Based Sulfones Efficiently Inactivate the Natural Resistance of Pseudomonas aeruginosa to β-Lactam Antibiotics” (J Med Chem, 2021).
Values after ≈ are worked out from the molar mass of the structure shown. Blank lines part the entries; values can stand above or below the compound they belong to. Active and inactive are the calls of the source. The rule behind the calls is not given here.

Assays:
[1] = system: Pseudomonas aeruginosa PAO1; assay: Inhibition of beta-lactamase activity in Pseudomonas aeruginosa PAO1 17/14-017 (ST-235) assessed as MIC for cefpodoxime antibacterial activity at 16 mg/L by broth microdilution method
[2] = system: Pseudomonas aeruginosa PAO1; assay: Inhibition of beta-lactamase activity in Pseudomonas aeruginosa PAO1 deltadacBdeltaampD assessed as MIC for cefpodoxime antibacterial activity at 16 mg/L by broth microdilution method
[3] = system: Pseudomonas aeruginosa PAO1; assay: Inhibition of beta-lactamase activity in Pseudomonas aeruginosa PAO1 PAHUAC-27(ST-22) assessed as MIC for cefpodoxime antibacterial activity at 16 mg/L by broth microdilution method
[4] = Inhibition beta lactamase PDC-1 in Pseudomonas aeruginosa PAO1 assessed as apparent inhibition constant using nitrocefin as substrate measured by 96 well microtitre plate; details: read-out: Ki(app)
[5] = system: Pseudomonas aeruginosa PAO1; assay: Inhibition of beta lactamase PDC-1 in Pseudomonas aeruginosa PAO1 assessed as reduction in enzyme activity using nitrocefin as chromogenic substrate preincubated for 10 min using 96 well microtiter plate
[6] = system: Pseudomonas aeruginosa PAO1; assay: Inhibition beta lactamase PDC-1 in Pseudomonas aeruginosa PAO1 assessed as maximum rate of inactivation using nitrocefin as substrate measured by 96 well microtitre plate
[7] = system: Pseudomonas aeruginosa PAO1; assay: Inhibition of beta-lactamase activity in Pseudomonas aeruginosa PAO1 6/04-224 (ST-175) assessed as MIC for cefpodoxime antibacterial activity at 4 mg/L by broth microdilution method
[8] = system: Pseudomonas aeruginosa PAO1; assay: Inhibition of beta-lactamase activity in Pseudomonas aeruginosa PAO1 deltadacB assessed as MIC for cefpodoxime antibacterial activity at 16 mg/L by broth microdilution method
[9] = system: Pseudomonas aeruginosa PAO1; assay: Inhibition of beta-lactamase activity in Pseudomonas aeruginosa PAO1 deltaampD assessed as MIC for cefpodoxime antibacterial activity at 16 mg/L by broth microdilution method
[10] = system: Pseudomonas aeruginosa PAO1; assay: Inhibition of beta-lactamase activity in Pseudomonas aeruginosa PAO1 PAHUAC-14 (ST-966) assessed as MIC for cefpodoxime antibacterial activity at 16 mg/L by broth microdilution method
[11] = system: Pseudomonas aeruginosa PAO1; assay: Inhibition of beta-lactamase activity in Pseudomonas aeruginosa PAO1 deltaC+pUCP-(PDC-5) assessed as MIC for cefpodoxime antibacterial activity at 4 mg/L by broth microdilution method
[12] = system: Pseudomonas aeruginosa PAO1; assay: Inhibition of beta-lactamase activity in Pseudomonas aeruginosa PAO1 PAHUAC-14 (ST-966) assessed as MIC for cefpodoxime antibacterial activity at 4 mg/L by broth microdilution method
Pseudomonas aeruginosa = assay: Inhibition of beta lactamase PDC-1 in Pseudomonas aeruginosa PAO1 for 30 min using MALDI TOF-MS analysis
[13] = system: Pseudomonas aeruginosa PAO1; assay: Inhibition of beta-lactamase activity in Pseudomonas aeruginosa PAO1 36/14-210 (ST-235) assessed as MIC for cefpodoxime antibacterial activity at 16 mg/L by broth microdilution method
[14] = system: Pseudomonas aeruginosa PAO1; assay: Inhibition of beta-lactamase activity in Pseudomonas aeruginosa PAO1 deltadacBdeltadacC assessed as MIC for cefpodoxime antibacterial activity at 4 mg/L by broth microdilution method
[15] = system: Pseudomonas aeruginosa PAO1; assay: Inhibition of beta-lactamase activity in Pseudomonas aeruginosa PAO1 53/22-113 (ST-244) assessed as MIC for cefpodoxime antibacterial activity at 16 mg/L by broth microdilution method
[16] = system: Pseudomonas aeruginosa PAO1; assay: Inhibition of beta-lactamase activity in Pseudomonas aeruginosa PAO1 deltaC assessed as MIC for cefpodoxime antibacterial activity at 16 mg/L by broth microdilution method
[17] = Inhibition beta lactamase PDC-1 in Pseudomonas aeruginosa PAO1 using nitrocefin as substrate measured by 96 well microtitre plate
[18] = system: Pseudomonas aeruginosa PAO1; assay: Inhibition of beta-lactamase activity in Pseudomonas aeruginosa PAO1 13/09-018 (ST-175) assessed as MIC for cefpodoxime antibacterial activity at 16 mg/L by broth microdilution method
[19] = system: Pseudomonas aeruginosa PAO1; assay: Inhibition of beta-lactamase activity in Pseudomonas aeruginosa PAO1 deltaampD assessed as MIC for cefpodoxime antibacterial activity at 4 mg/L by broth microdilution method
[20] = system: Pseudomonas aeruginosa PAO1; assay: Inhibition of beta-lactamase activity in Pseudomonas aeruginosa PAO1 deltaC+pUCP-(PDC-1) assessed as MIC for cefpodoxime antibacterial activity at 16 mg/L by broth microdilution method
[21] = system: Pseudomonas aeruginosa PAO1; assay: Inhibition of beta-lactamase activity in Pseudomonas aeruginosa PAO1 deltaDdeltsDh2deltaDh3 assessed as MIC for cefpodoxime antibacterial activity at 4 mg/L by broth microdilution method
[22] = system: Pseudomonas aeruginosa PAO1; assay: Inhibition of beta-lactamase activity in Pseudomonas aeruginosa PAO1 deltadacBdeltapbpGdeltadacC assessed as MIC for cefpodoxime antibacterial activity at 4 mg/L by broth microdilution method
[23] = system: Pseudomonas aeruginosa PAO1; assay: Inhibition of beta-lactamase activity in Pseudomonas aeruginosa PAO1 deltadacBdeltaampD assessed as MIC for cefpodoxime antibacterial activity at 4 mg/L by broth microdilution method
[24] = system: Pseudomonas aeruginosa PAO1; assay: Inhibition beta lactamase PDC-1 in Pseudomonas aeruginosa PAO1 assessed half life of nitrocefin substrate measured by 96 well microtitre plate assay
[25] = system: Pseudomonas aeruginosa PAO1; assay: Inhibition of beta-lactamase activity in Pseudomonas aeruginosa PAO1 53/22-113 (ST-244) assessed as MIC for cefpodoxime antibacterial activity at 4 mg/L by broth microdilution method
[26] = system: Pseudomonas aeruginosa PAO1; assay: Inhibition of beta-lactamase activity in Pseudomonas aeruginosa PAO1 deltaC+pUCP-(PDC-5) assessed as MIC for cefpodoxime antibacterial activity at 16 mg/L by broth microdilution method
[27] = system: Pseudomonas aeruginosa PAO1; assay: Inhibition of beta-lactamase activity in Pseudomonas aeruginosa PAO1 deltadacB assessed as MIC for cefpodoxime antibacterial activity at 4 mg/L by broth microdilution method
[28] = system: Pseudomonas aeruginosa PAO1; assay: Inhibition of beta-lactamase activity in Pseudomonas aeruginosa PAO1 deltaC+pUCP-(PDC-1) assessed as MIC for cefpodoxime antibacterial activity at 4 mg/L by broth microdilution method
[29] = system: Pseudomonas aeruginosa PAO1; assay: Inhibition of beta-lactamase activity in Pseudomonas aeruginosa PAO1 assessed as MIC for cefpodoxime antibacterial activity at 16 mg/L by broth microdilution method
[30] = system: Pseudomonas aeruginosa PAO1; assay: Inhibition of beta-lactamase activity in Pseudomonas aeruginosa PAO1 deltaC assessed as MIC for cefpodoxime antibacterial activity at 4 mg/L by broth microdilution method
[31] = system: Pseudomonas aeruginosa PAO1; assay: Inhibition of beta-lactamase activity in Pseudomonas aeruginosa PAO1 PAHUAC-27(ST-22) assessed as MIC for cefpodoxime antibacterial activity at 4 mg/L by broth microdilution method
[32] = system: Pseudomonas aeruginosa PAO1; assay: Inhibition of beta-lactamase activity in Pseudomonas aeruginosa PAO1 deltadacBdeltapbpGdeltadacC assessed as MIC for cefpodoxime antibacterial activity at 16 mg/L by broth microdilution method
[33] = system: Pseudomonas aeruginosa PAO1; assay: Inhibition of beta-lactamase activity in Pseudomonas aeruginosa PAO1 6/04-224 (ST-175) assessed as MIC for cefpodoxime antibacterial activity at 16 mg/L by broth microdilution method
[34] = system: Pseudomonas aeruginosa PAO1; assay: Inhibition of beta-lactamase activity in Pseudomonas aeruginosa PAO1 deltaDdeltsDh2deltaDh3 assessed as MIC for cefpodoxime antibacterial activity at 16 mg/L by broth microdilution method
[35] = system: Pseudomonas aeruginosa PAO1; assay: Inhibition beta lactamase PDC-1 in Pseudomonas aeruginosa PAO1 assessed as ratio of kinact/K1 using nitrocefin as substrate measured by 96 well microtitre plate
[36] = system: Pseudomonas aeruginosa PAO1; assay: Inhibition of beta-lactamase activity in Pseudomonas aeruginosa PAO1 13/09-018 (ST-175) assessed as MIC for cefpodoxime antibacterial activity at 4 mg/L by broth microdilution method
[37] = system: Pseudomonas aeruginosa PAO1; assay: Inhibition of beta-lactamase activity in Pseudomonas aeruginosa PAO1 deltadacBdeltadacC assessed as MIC for cefpodoxime antibacterial activity at 16 mg/L by broth microdilution method
[38] = system: Pseudomonas aeruginosa PAO1; assay: Inhibition of beta-lactamase activity in Pseudomonas aeruginosa PAO1 23/14-053 (ST-309) assessed as MIC for cefpodoxime antibacterial activity at 16 mg/L by broth microdilution method
[39] = system: Pseudomonas aeruginosa PAO1; assay: Inhibition of beta-lactamase activity in Pseudomonas aeruginosa PAO1 17/14-017 (ST-235) assessed as MIC for cefpodoxime antibacterial activity at 4 mg/L by broth microdilution method
[40] = system: Pseudomonas aeruginosa PAO1; assay: Inhibition of beta-lactamase activity in Pseudomonas aeruginosa PAO1 36/14-210 (ST-235) assessed as MIC for cefpodoxime antibacterial activity at 4 mg/L by broth microdilution method
[41] = system: Pseudomonas aeruginosa PAO1; assay: Inhibition of beta-lactamase activity in Pseudomonas aeruginosa PAO1 23/14-053 (ST-309) assessed as MIC for cefpodoxime antibacterial activity at 4 mg/L by broth microdilution method
[42] = system: Pseudomonas aeruginosa PAO1; assay: Inhibition of beta-lactamase activity in Pseudomonas aeruginosa PAO1 assessed as MIC for cefpodoxime antibacterial activity at 4 mg/L by broth microdilution method
[43] = system: Pseudomonas aeruginosa PAO1; assay: Inhibition beta lactamase PDC-1 in Pseudomonas aeruginosa PAO1 assessed as inactivation efficiency by measuring acylation rate (k2/K) using nitrocefin as substrate measured by 96 well microtitre plate
[44] = system: Pseudomonas aeruginosa PAO1; assay: Inhibition beta lactamase PDC-1 in Pseudomonas aeruginosa PAO1 assessed as deacylation off-rate using nitrocefin as substrate at 30 mins measured by 96 well microtitre plate

MIC [1]: 4 µg/mL (≈ 7.9 µM)
MIC [2]: 2 µg/mL (≈ 3.95 µM)
MIC [3]: 2 µg/mL (≈ 3.95 µM)
Ki [4]: 110 nM
inhibition [5]: inactive
Kinact [6]: 0.013 s⁻¹
MIC [7]: 8 µg/mL (≈ 15.8 µM)
MIC [8]: 0.5 µg/mL (≈ 0.987 µM)
MIC [9]: 1 µg/mL (≈ 1.97 µM)
MIC [10]: 2 µg/mL (≈ 3.95 µM)
MIC [11]: 2 µg/mL (≈ 3.95 µM)
MIC [12]: 8 µg/mL (≈ 15.8 µM)
inhibition (Pseudomonas aeruginosa): inactive
MIC [13]: 8 µg/mL (≈ 15.8 µM)
MIC [14]: 2 µg/mL (≈ 3.95 µM)
MIC [15]: 4 µg/mL (≈ 7.9 µM)
MIC [16]: 1 µg/mL (≈ 1.97 µM)
IC50 [17]: 6.3 nM
MIC [18]: 8 µg/mL (≈ 15.8 µM)
MIC [19]: 8 µg/mL (≈ 15.8 µM)
MIC [20]: 1 µg/mL (≈ 1.97 µM)
MIC [21]: 8 µg/mL (≈ 15.8 µM)
MIC [22]: 1 µg/mL (≈ 1.97 µM)
MIC [23]: 8 µg/mL (≈ 15.8 µM)
T1/2 [24]: 78 min
MIC [25]: 8 µg/mL (≈ 15.8 µM)
MIC [26]: 2 µg/mL (≈ 3.95 µM)
MIC [27]: 1 µg/mL (≈ 1.97 µM)
MIC [28]: 1 µg/mL (≈ 1.97 µM)
MIC [29]: 1 µg/mL (≈ 1.97 µM)
MIC [30]: 1 µg/mL (≈ 1.97 µM)
MIC [31]: 4 µg/mL (≈ 7.9 µM)
MIC [32]: 0.5 µg/mL (≈ 0.987 µM)
MIC [33]: 8 µg/mL (≈ 15.8 µM)
MIC [34]: 1 µg/mL (≈ 1.97 µM)
K [35]: 5 10^5/M/s
MIC [36]: 2 µg/mL (≈ 3.95 µM)
MIC [37]: 0.5 µg/mL (≈ 0.987 µM)
MIC [38]: 2 µg/mL (≈ 3.95 µM)
MIC [39]: 4 µg/mL (≈ 7.9 µM)
MIC [40]: 16 µg/mL (≈ 31.6 µM)
MIC [41]: 2 µg/mL (≈ 3.95 µM)
MIC [42]: 1 µg/mL (≈ 1.97 µM)
k2/K inactivation efficiency [43]: 6.8 M⁻¹ s⁻¹
K [44]: 9 10^-2/min
SMILES: C[C@]1(COC(=O)Cc2ccc(O)c(O)c2)[C@H](C(=O)O)N2C(=O)/C(=C/c3ccc(F)cn3)[C@H]2S1(=O)=O

MIC [1]: 4 µg/mL
MIC [2]: 1 µg/mL
MIC [3]: 1 µg/mL
Ki [4]: 990 nM
MIC [7]: 8 µg/mL
MIC [8]: 0.5 µg/mL
MIC [9]: 0.5 µg/mL
MIC [10]: 2 µg/mL
MIC [11]: 2 µg/mL
MIC [12]: 4 µg/mL
MIC [13]: 4 µg/mL
MIC [14]: 1 µg/mL
MIC [15]: 4 µg/mL
MIC [16]: 1 µg/mL
IC50 [17]: 51 nM
MIC [18]: 8 µg/mL
MIC [19]: 1 µg/mL
MIC [20]: 1 µg/mL
MIC [21]: 2 µg/mL
MIC [22]: 1 µg/mL
MIC [23]: 4 µg/mL
T1/2 [24]: 28 min
MIC [25]: 4 µg/mL
MIC [26]: 1 µg/mL
MIC [27]: 1 µg/mL
MIC [28]: 1 µg/mL
MIC [29]: 1 µg/mL
MIC [30]: 1 µg/mL
MIC [31]: 1 µg/mL
MIC [32]: 0.5 µg/mL
MIC [33]: 8 µg/mL
MIC [34]: 1 µg/mL
MIC [36]: 2 µg/mL
MIC [37]: 0.5 µg/mL
MIC [38]: 1 µg/mL
MIC [39]: 4 µg/mL
MIC [40]: 8 µg/mL
MIC [41]: 1 µg/mL
MIC [42]: 1 µg/mL
k2/K inactivation efficiency [43]: 1370 M⁻¹ s⁻¹
K [44]: 2.6 10^-2/min
SMILES: NC(=O)[C@@H]1CC[C@@H]2CN1C(=O)N2OS(=O)(=O)O [AVIBACTAM SODIUM]
